Test results: patent US11491132B2, “Methods for treating thrombocytopenia” (Enzychem Lifesciences Corporation, priority 2014, dated 2022)

Experiments:
C3 [1] = experiment: C3 inhibition by PLAG in HMC-1, ELISA; type: cell-based, human; details: HMC-1 cells, PLAG 1, 10 and 100 μg/mL for 2 hours, activated 72 hours
Method: In a separate experiment, human mast cells (HMC-1, 1×10^5 cell/ml) are treated with PLAG of various concentrations (1, 10 and 100 μg/mL) for 2 hours. The cells are activated for 72 hours with 10% FBS (Fetal bovine serum) containing IMDM. The decrease of C3 is confirmed by ELISA analysis of the expressed protein.

C3 [2] = experiment: C3 expression in IL-4/TNF-α treated HMC-1 cells, RT-PCR; type: cell-based, human; details: HMC-1 cells treated with IL-4 and TNF-α; PLAG 0.1 and 1 μg/mL pre-treatment, or S6I
Method: A blood cell line, HMC-1 (human mast cell, American Type Culture Collection, ATCC, Rockville, Md.) is incubated and maintained at 37° C. under 5% CO2 humid conditions. The medium is IMDM (Life Technologies, Karlsruhe, Germany) containing 10% Fetal Calf Serum (FCS, HyClone, Logan, Utah), 2 mM […], 100 μg/ml penicillin, 100 μg/ml streptomycin (Life Technologies). The cultured HMC-1 cells (1×10^6 cell/ml) are pre-treated with 0.1 and 1 μg/mL concentration of PLAG, followed by treating with IL-4 (5 ng) and/or TNF-α (10 ng) to induce cellular activities.
The expressed C3 and its mRNA level change are observed by using RT-PCR (Reverse Transcriptase Polymerase Chain Reaction). The RT-PCR is carried out as follows: the total RNA is separated by the standard protocol and cDNA is synthesized using AccuScript High Fidelity 1st Strand cDNA Synthesis Kit (Stratagene) by the manufacturer's instructions. Two-step RT-PCR reaction is conducted using Oligo-dT primer and reverse transcriptase, pair of primer and Taq polymerase (Takara, Shiga, Japan). […] The product of PCR is separated using 1.5% agarose gel, dyed with ethidium bromide (EtBr), and visualized with Gel Doc 2000 UV trans-illuminator (Bio-Rad Laboratories, Hercules, Calif., USA), and the experimental data is analyzed using Quantity One software (Bio-Rad Laboratories).

C3 [3] = experiment: C3 in culture supernatant of HepG2 cells, ELISA; type: cell-based, human; details: PLAG 1 to 100 μg/ml or S6I 10 and 100 μg/ml, IL-4 and TNF-α 1 hr, 18 hr at 37° C.
Method: The incubated HepG2 cell lines are treated with PLAG (1˜100 μg/ml), followed by IL-4 and TNF-α, reacted for 1 hour, incubated for 18 hours at 37° C. and the supernatant isolated. Quantitation of the amount of C3 in the cellular culture medium (supernatant) from HepG2 cells is performed by ELISA using a commercially available monoclonal antibody (mAb, R&D Systems) and the manufacture's protocol; the results are presented in FIG. 3. C3 is expressed spontaneously under in vitro culture condition using 10% FCS added to HepG2 cells incubated for 12 hr. The cells are treated with different doses of PLAG from 1 to 100 μg/ml (Panel A, Panel B) or 10 and 100 μg/ml of S6I (Panel C), reacted with IL-4 and TNF-α for 1 hr and then incubated for 18 hr at 37° C. Cellular viability is confirmed using the WST-1 assay (Panel A).

[4] = test system: splenic nodules, primitive progenitor cells and megakaryocytes; experiment: Colony forming units in spleen (CFUs) assay in heavily irradiated mice; type: in vivo; details: PLAG 50 mg/kg/d i.p. or p.o.
Method: In order to determine the in vivo effect of PLAG on the recovery of hematopoiesis, a CFUs assay is performed in heavily irradiated mice.

Q: With `CCCCC/C=C\C/C=C\CCCCCCCC(=O)OC(COC(C)=O)COC(=O)CCCCCCCCCCCCCCC` (racemic) [PLAG, 1-palmitoyl-2-linoleoyl-3-acetylglycerol] as the compound, how does the “decrease of C3 (expressed protein, ELISA)” value (C3 [1]) read?
A: The value was “proportional to the concentration of PLAG”.

Q: And the “expression of C3” value (C3 [2])?
A: The value was “suppressed by PLAG on a concentration dependent basis”.

Q: What about the “expression of C3 (amount in supernatant, ELISA)” value (C3 [3]) of the same compound?
A: Its value is “decreased dose-dependently”.

Q: What about the “number of splenic nodules and numbers of primitive progenitor cells and megakaryocytes” value [4] of the same compound?
A: Its value is “marked increase”.
